Experimental findings from patent US10858342B2, “Bicyclic imidazole derivatives useful for the treatment of renal diseases, cardiovascular diseases and fibrotic diseases” (Boehringer Ingelheim International GmbH, priority 2016, dated 2020) are described below.

Like-named read-outs stand apart in the source and are kept apart here.

Holding throughout (format): biochemical, cynomolgus monkey
The target in experiment [1] is cortisol synthase (CYP11B1) (Macaca fascicularis, UniProt A0A2K5ULY1). The experiment is described as follows: Inhibition of cortisol synthesis (cynomolgus adrenal mitochondria, cortisol by mass spectrometry). On the procedure:
The aldosterone synthase and cortisol synthase inhibition assays employ cynomolgus adrenal gland mitochondria as the source of aldosterone synthase (CYP11B2) and cortisol synthase (CYP11B1). Mitochondria are prepared from frozen cynomolgus monkey adrenal glands according to Method A described in by J. D. McGarry et al. (Biochem. J., 1983, 214, 21-28), with a final resuspension in the AT buffer described in R. Yamaguchi et al. (Cell Death and Differentiation, 2007, 14, 616-624), frozen as aliquots in liquid nitrogen and stored at −80° C. until use. One unit of CYP11B2 and CYP11B1 activity in these preparations is defined as the amount of enzyme that generates 1 pmol of product in one hour under the conditions described.
(§1) Assays are performed in 96-well format in a final volume of 60 microL/well, containing 100 mM potassium phosphate, pH 7.4, 1% (v/v) DMSO, and additionally, 2 μM of corticosterone and 50 units of CYP11B2 activity. Reactions are started by the addition of NADPH to 1 mM and allowed to proceed for 90 minutes at 37° C. Reactions are terminated by the addition of 60 μL of MeCN containing an internal standard for mass spectrometry. One hundred microliters are then transferred to a glass filter plate and centrifuged at 570×g for 5 minutes and the filtrate is collected. Reaction product aldosterone is quantified by mass spectrometry. To determine the assay blank value (0% activity), NADPH is omitted from some reactions.
Dose dependent inhibition is quantified by the inclusion of compound at various concentrations. Maximum activity (100%) is defined by reactions containing NADPH, but without compound. Activities at each concentration are expressed as a percentage of the maximum activity (y-axis) and plotted against concentration of compound (x-axis) and the concentration corresponding to 50% activity (IC50) determined using the XLFit curve-fitting program using a 4-parameter logistic model.
Assays are performed as for aldosterone synthase except for the use of 150 units of CYP11B1, 11-deoxycortisol as substrate and cortisol measured as product.

Experiment [2] concerns aldosterone synthase (CYP11B2). The experiment is described as follows: Inhibition of aldosterone synthase (cynomolgus adrenal mitochondria, aldosterone by mass spectrometry). The conditions noted are these: selectivity for aldosterone synthase inhibition over cortisol synthase (CYP11B1) inhibition, fold. The procedure: (§2) The aldosterone synthase and cortisol synthase inhibition assays employ cynomolgus adrenal gland mitochondria as the source of aldosterone synthase (CYP11B2) and cortisol synthase (CYP11B1). […] One unit of CYP11B2 and CYP11B1 activity in these preparations is defined as the amount of enzyme that generates 1 pmol of product in one hour under the conditions described.
(§3) The compounds of the invention may be evaluated for aldosterone synthase inhibition by the following assay:
as §1
(§4) Dose dependent inhibition is quantified by the inclusion of compound at various concentrations. Maximum activity (100%) is defined by reactions containing NADPH, but without compound.

The target in experiment [3] is aldosterone synthase (CYP11B2) (Macaca fascicularis, UniProt A0A2K5UPL9). The description is as above. On the procedure: as §2, §3, §1, §4
Sequence of aldosterone synthase (CYP11B2) (Macaca fascicularis, UniProt A0A2K5UPL9) (A0A2K5UPL9 1-503): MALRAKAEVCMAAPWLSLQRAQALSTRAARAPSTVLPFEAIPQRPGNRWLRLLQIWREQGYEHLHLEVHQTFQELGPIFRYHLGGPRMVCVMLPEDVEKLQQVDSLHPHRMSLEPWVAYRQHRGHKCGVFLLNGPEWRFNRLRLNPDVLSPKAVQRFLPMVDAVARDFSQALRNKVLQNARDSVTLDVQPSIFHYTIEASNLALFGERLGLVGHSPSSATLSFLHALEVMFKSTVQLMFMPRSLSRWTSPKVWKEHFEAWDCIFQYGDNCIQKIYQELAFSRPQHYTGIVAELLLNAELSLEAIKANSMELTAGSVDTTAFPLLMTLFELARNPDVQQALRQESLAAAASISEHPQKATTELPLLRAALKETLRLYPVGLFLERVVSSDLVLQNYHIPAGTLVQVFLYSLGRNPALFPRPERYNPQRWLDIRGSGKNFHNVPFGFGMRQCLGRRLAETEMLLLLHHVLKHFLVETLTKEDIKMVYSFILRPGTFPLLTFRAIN
[4] abbreviates: 11-deoxycortisol substrate, 150 units CYP11B1; read-out: Cortisol Inhibition IC50.
The mark [5] stands for this setting: 2 μM corticosterone substrate, 50 units CYP11B2, 90 min, 37° C., read-out: Aldosterone Inhibition IC50.
The mark [6] stands for this setting: read-out: Cortisol Inhibition IC50; 11-deoxycortisol substrate, 150 units CYP11B1.

One may read the IC50 as the concentration at which inhibition is half-maximal. Take `O=C1CC2(CCC2)Cc2ncn(-c3ccc(F)c(F)c3)c21` [C-ACE]: the IC50 is 0.63 µM in experiment [1] (setting [4]) and 20 nM in experiment [3] (setting [5]). Further, in experiment [2], the Selectivity was found to be 32.
Take `CC1(C)CC(=O)c2c(ncn2-c2ccc(F)c(Cl)c2)C1` [C-ABI, 3-(3-Chloro-4-fluoro-phenyl)-6,6-dimethyl-3,5,6,7-tetrahydro-benzoimidazol-4-one]: the figures for the IC50 in experiment [1] (setting [4]) and in experiment [3] (setting [5]) were 0.91 µM and 4.8 nM, respectively. The compound further showed a Selectivity in experiment [2] of 190.
The like results for `CN1C(=O)CCc2cc(-n3cnc4c3C(=O)CCC4)cnc21` [C-AAD, 1-Methyl-6-(7-oxo-4,5,6,7-tetrahydro-benzoimidazol-1-yl)-3,4-dihydro-1H-[1,8]naphthyridin-2-one] were, in that order, above 30 µM, 150 nM and 200.
The like results for `O=C1CCCc2ncn(-c3ccc4c(c3)COC4)c21` [C-AAB, 3-(1,3-Dihydro-isobenzofuran-5-yl)-3,5,6,7-tetrahydro-benzoimidazol-4-one] were, in that order, 23 µM, 85 nM and 270.
The like results for `NC(=O)N1CCCc2cc(-n3cnc4c3C(=O)CCC4)ccc21` [C-ADZ, 6-(7-Oxo-4,5,6,7-tetrahydro-benzoimidazol-1-yl)-3,4-dihydro-2H-quinoline-1-carboxylic acid amide] were, in that order, above 30 µM, 99 nM and 300.
Consider `C[C@@H]1Cc2cc(-n3cnc4c3C(=O)CCC4)ccc2O1` (stereo in doubt) [C-AAZ-A, 3-(2-Methyl-2,3-dihydro-benzofuran-5-yl)-3,5,6,7-tetrahydro-benzoimidazol-4-one], for which the IC50 was above 30 µM in experiment [1] (setting [4]) and 300 nM in experiment [3] (setting [5]). Besides, in experiment [2], the Selectivity was 100.
The like results for `O=C1CCCc2ncn(-c3ccc4c(c3)OCCO4)c21` [C-AAI, 3-(2,3-Dihydro-benzo[1,4]dioxin-6-yl)-3,5,6,7-tetrahydro-benzoimidazol-4-one] were, in that order, above 30 µM, 160 nM and 180.
As for `CC1(C)CC(=O)c2c(ncn2Cc2ccc3[nH]ncc3c2)C1` [C-ACY, 3-(1H-Indazol-5-ylmethyl)-6,6-dimethyl-3,5,6,7-tetrahydro-benzoimidazol-4-one], the results for the concentration for half-maximal inhibition (IC50) in experiment [1] (setting [4]) and in experiment [3] (setting [5]) were 1.7 µM and 110 nM, respectively. Moreover, in experiment [2], the Selectivity is reported as 15.
In the case of `CC(=O)Nc1ccc(Cn2cnc3c2C(=O)CC(C)(C)C3)cc1` [C-ADE, N-[4-(5,5-Dimethyl-7-oxo-4,5,6,7-tetrahydro-benzoimidazol-1-ylmethyl)-phenyl]-acetamide], the IC50 in experiment [1] (setting [4]) came out at 1.9 µM; in experiment [3] (setting [5]), 58 nM.
On to `CC1(C)CC(=O)c2c(ncn2C2CCCc3ccccc32)C1` (stereo not drawn) [C-ACS, 6,6-Dimethyl-3-(1,2,3,4-tetrahydronaphthalen-1-yl)-3,5,6,7-tetrahydro-benzoimidazol-4-one], for which the half-maximal inhibitory concentration (IC50) in experiment [1] (setting [6]) was 26 µM; in experiment [3] (setting [5]) it was 93 nM.
With `CC1(C)CC(=O)c2c(ncn2C2Cc3ccccc3C2)C1` [C-ADG], the results for the IC50 in experiment [1] (setting [4]) and in experiment [3] (setting [5]) were 61 µM and 47 nM, respectively.
The like results for `CC1(C)CC(=O)c2c(ncn2Cc2ccc(C(=O)N3CC[C@@H](O)C3)cc2)C1` [C-ADT, 3-[4-((R)-3-Hydroxy-pyrrolidine-1-carbonyl)-benzyl]-6,6-dimethyl-3,5,6,7-tetrahydro-benzoimidazol-4-one] were, in that order, 29 µM and 290 nM.
The like results for `CC1(C)CC(=O)c2c(ncn2C2CCC3CCCCC3C2)C1` (stereo not drawn) [C-ACO, 3-(Decahydro-naphthalen-2-yl)-6,6-dimethyl-3,5,6,7-tetrahydro-benzoimdazol-4-one] were, in that order, 14 µM and 420 nM.
As to `CC1(C)CC(=O)c2c(ncn2-c2cccc(C#N)c2)C1` [C-ABS, 3-(5,5-Dimethyl-7-oxo-4,5,6,7-tetrahydro-benzoimidazol-1-yl)-benzonitrile], the figures for the half-inhibitory concentration (IC50) in experiment [1] (setting [4]) and in experiment [3] (setting [5]) were 10 µM and 250 nM, respectively.
Consider `CCOC(=O)C1CC(=O)c2c(ncn2-c2ccc(C#N)c(Cl)c2)C1` (stereo not drawn) [C-AAY, 1-(3-Chloro-4-cyano-phenyl)-7-oxo-4,5,6,7-tetrahydro-1H-benzoimidazole-5-carboxylic acid ethyl ester], for which the values for the half-inhibitory concentration (IC50) in experiment [1] (setting [6]) and in experiment [3] (setting [5]) were 5.1 µM and 7.3 nM, respectively.
In the case of `N#Cc1ccc(-n2cnc3c2C(=O)CCC3)nc1` [C-ADW, 6-(7-Oxo-4,5,6,7-tetrahydro-benzoimidazol-1-yl)-nicotinonitrile], the half-inhibitory concentration (IC50) in experiment [1] (setting [4]) stood at 25 µM; in experiment [3] it was 290 nM.
Take `N#C[C@H]1CC[C@H](n2cnc3c2C(=O)CCC3)CC1` [C-ACJ, trans-4-(7-Oxo-5,6-dihydro-4H-benzimidazol-1-yl)cyclohexanecarbonitrile]: the values for the concentration for half-maximal inhibition (IC50) in experiment [1] (setting [4]) and in experiment [3] (setting [5]) were 13 µM and 30 nM, respectively.
Regarding `Cc1ccc(-n2cnc3c2C(=O)CC(C)(C)C3)cc1C#N` [C-ABY, 5-(5,5-Dimethyl-7-oxo-4,5,6,7-tetrahydro-benzoimidazol-1-yl)-2-methyl-benzonitrile], the 50% inhibitory concentration (IC50) in experiment [1] (setting [4]) was 7.3 µM; in experiment [3] (setting [5]), 130 nM.
For `CC1(C)CC(=O)c2c(ncn2[C@H]2CC[C@@H](C#N)CC2)C1` [C-ADL, 4-(5,5-Dimethyl-7-oxo-4,5,6,7-tetrahydro-benzoimidazol-1-yl)-cyclohexanecarbonitrile], in that order: 7.9 µM and 22 nM.
For `O=C1CCCc2ncn(-c3ccc(Cl)c(Cl)c3)c21` [C-ACC, 3-(3,4-Dichloro-phenyl)-3,5,6,7-tetrahydro-benzoimidazol-4-one], in that order: 1 µM and 5.5 nM.
In the case of `CN(C)C(=O)[C@H]1CC(=O)c2c(ncn2-c2ccc(C#N)c(Cl)c2)C1` [C-AEE, (R)-1-(3-Chloro-4-cyano-phenyl)-7-oxo-4,5,6,7-tetrahydro-1H-benzoimidazole-5-carboxylic acid dimethylamide], the IC50 is above 30 µM in experiment [1] (setting [6]) and 190 nM in experiment [3] (setting [5]).
As for `CC1(C)CC(=O)c2c(ncn2C2CCc3cc(Br)ccc3C2)C1` (stereo not drawn) [C-ACM, 3-(6-Bromo-1,2,3,4-tetrahydro-naphthalen-2-yl)-6,6-dimethyl-3,5,6,7-tetrahydro-benzoimidazol-4-on], the 50% inhibitory concentration (IC50) in experiment [1] (setting [4]) was above 30 µM; in experiment [3] (setting [5]), 53 nM.
Regarding `CC1(C)CC(=O)c2c(ncn2C2CCCCC2)C1` [C-ACK, 3-Cyclohexyl-6,6-dimethyl-3,5,6,7etrahydro-benzoimidazol-4-one], the IC50 in experiment [1] (setting [4]) was found to be 6.1 µM; in experiment [3] (setting [5]) it was 260 nM.
For the compound `N#Cc1ccc(-n2cnc3c2C(=O)CC2(CCOCC2)C3)cc1Cl` [C-AAQ, 3-(3-Chloro-4-cyano-phenyl)-6,6-3-o-tetrahydropyran-3,5,6,7-tetrahydro-benzoimidazol-4-one], the values for the half-maximal inhibitory concentration (IC50) in experiment [1] (setting [6]) and in experiment [3] (setting [5]) were 2.9 µM and 44 nM, respectively.
With `N#Cc1ccc(-n2cnc3c2C(=O)CC(CO)C3)cc1Cl` (stereo not drawn) [C-AED, 2-Chloro-4-(5-hydroxymethyl-7-oxo-4,5,6,7-tetrahydro-benzoimidazol-1-yl)-benzonitrile], the IC50 in experiment [1] (setting [6]) came out at 8.6 µM; in experiment [3] (setting [5]), 18 nM.
As for `CC(C)Oc1ccc(-n2cnc3c2C(=O)CC(C)(C)C3)cc1` [C-ABQ, 3-(4-Isoporopoxy-phenyl)-6,6-dimethyl-3,5,6,7-tetrahydro-benzoimidazol-4-one], the IC50 in experiment [1] (setting [4]) is above 100 µM; in experiment [3] (setting [5]), 280 nM.
